US9782483B2, “Sigma ligands for the prevention and/or treatment of emesis induced by chemotherapy or radiotherapy” (Laboratories Del Dr. Esteve, S.A., priority 2010, dated 2017)

What was measured:
[1] = test system: ferret (Mustela putorius furo); assay: Antiemetic properties against cisplatin-induced emesis in the conscious, unrestrained ferret (telemetry); format: in vivo; details: cisplatin 5 mg/kg i.p., 80 mg/kg i.p., multiple dose regimen (9 treatments)
Procedure: The antiemetic properties of compound 63 were assessed in combination with intraperitoneal administration of the chemotherapeutic agent cisplatin in the conscious, unrestrained ferret (Mustela putorius furo).
At least 12 days before their first treatment, ferrets were surgically implanted with telemetry devices. Individual body weights were recorded before treatment, at the time of telemetry device implantation, one day before the initiation of treatment and after completion of the treatment session, at the time of euthanasia, for each animal respectively.
The animals were treated according to the following schedule: […]
Body temperature, abdominal pressure and activity of the abdominal muscle (EMG) were recorded in treated animals, on day 0 and day 7, respectively, starting approximately 1 hour before the first administration of the vehicle and the test item and for at least 72 hours following the first administration of the vehicle and the test item. […]
2.7 Administration of Emetogenic Item • Route: Intraperitoneal. • Method of administration: Bolus injection using a sterile syringe and needle introduced intraperitoneally into the pelvic area. • Frequency: One administration for each animal, on day 0 or 7, one hour after the first treatment with the test item • Volume of administration: 5 mL/kg. • Individual dose volumes were calculated using the latest recorded body weight. […]

[2] = during Patient-Controlled Analgesia Therapy; Tramèr et al. 1999; cited from earlier work

Compound	number of emetic events during the delayed phase ([1]; delayed phase 18 to 72 hours, vs vehicle)	maximum total number of emetic events (EE) ([1]; delayed phase, between 62 and 63 hours)	antinausea effect [2]
Cc1cc(OCCN2CCOCC2)nn1-c1ccc2ccccc2c1 [Compound 63, 4-{2-[5-Methyl-1-(naphthalen-2-yl)-1H-pyrazol-3-yloxy]ethyl}morpholine]	markedly decreased	39	–
Cc1nccn1CC1CCc2c(c3ccccc3n2C)C1=O (stereo not shown) [ondasetron]	–	–	no evidence of any antinausea effect
CN1[C@@H]2CC[C@H]1C[C@@H](OC(=O)c1c[nH]c3ccccc13)C2 [tropisetron]	–	–	no evidence of any antinausea effect
